Values of other authors, collected in patent publication US20250127900A1, “STABLE PHARMACEUTICAL COMPOSITIONS” (MANKIND PHARMA LTD., priority 2021, published 2025).

Key:
[1] = for Acceptable intake, EMA: EMA limit; for Acceptable intake, FDA: FDA limit
[2] = in vivo

Row | Compound | Acceptable intake, EMA [1] [ng/day] | Acceptable intake, FDA [1] [ng/day] | LD50 [2] [mg/kg]
1 | CC(C)N(N=O)C(C)C [N-Nitrosodiisopropylamine] | 26.5 | 26.5 | –
2 | CN(C)N=O [N-Nitrosodimethylamine] | 96 | 96 | 10
3 | CCN(CC)N=O [N-Nitrosodiethylamine] | 26.5 | 26.5 | –
